Tested on: c-Myc
Test: c-Myc immunofluorescence assay
Assay type: cell-based, human
Conditions: A549 cells, 24 hours treatment, anti-c-Myc immunofluorescence
Description: A549 human non-small cell lung carcinoma cells were treated for 24 hours with increasing compound concentration, cells were fixed and stained with a nuclei stain (DAPI) and anti-c-Myc fluorescent antibody. The c-Myc signal was quantified by image analysis, and data was exported and analyzed using TIBCO Spotfire® (TIBCO Corporation). Dose response curves were generated and fitted with logaristic regression to calculate potency (EC50 values). Potency values are presented in Table 2 for all compounds and are shown for selected compounds (FIG. 4).
A549 cells were grown in 384-wells plates (Perkin Elmer, Cat. 6057300) for 48 hours, treated with compounds and then fixed for 20 min in 4% paraformaldehyde. After that permeabilization was done using 0.1% Triton X-100 in PBS for 20 min. Primary anti-c-Myc antibody (Abcam, ab32072) staining was performed for 90 min at room temperature. Cells then were washed twice with PBS and incubated with secondary antibody (Abcam, ab150075) for 90 min at room temperature. Nuclei were stained with DAPI for 10 min and washed twice with PBS.
Cell images were taken with Operetta (Perkin Elmer, USA), a wide-field fluorescence microscope at 20× magnification. After acquisition, the images were transferred to Columbus software (Perkin-Elmer) for image analysis. In Columbus, cells were identified by their nucleus, using the “Find Nuceli” module and cytoplasm was detected based on the secondary antibody channel. Subsequently, the fluorescent signal was enumerated in the identified cell region. Then data was exported to a data analysis and visualization software, Tibco Spotfire, USA.

## NC(=O)c1ccc2c(c1)sc1nc(-c3ccc(C4CCCN4)cc3F)cn12 (stereo not drawn) [Compound 492, 2-(2-fluoro-4-(pyrrolidin-2-yl)phenyl)benzo[d]imidazo[2,1-b]thiazole-7-carboxamide]
  Myc Efficacy (−LogEC50): +++ (+++ ≥6)

## O=C(NCCCN1CCC(F)CC1)c1ccc2c(c1)sc1nc(-c3ccc(C4CC(O)CN4)cc3F)cn12 (stereo not drawn) [Compound 493, 2-(2-fluoro-4-(4-hydroxypyrrolidin-2-yl)phenyl)-N-(3-(4-fluoropiperidin-1-yl)propyl)benzo[d]imidazo[2,1-b]thiazole-7-carboxamide]
  Myc Efficacy (−LogEC50): +++ (+++ ≥6)

## CNC(=O)c1ccc2c(c1)sc1nc(-c3ccc(C4CCCN4)cc3F)cn12 (stereo not drawn) [Compound 498, 2-(2-fluoro-4-(pyrrolidin-2-yl)phenyl)-N-methylbenzo[d]imidazo[2,1-b]thiazole-7-carboxamide]
  Myc Efficacy (−LogEC50): +++ (+++ ≥6)

## CN1CCC(NC(=O)c2ccc3c(c2)sc2nc(-c4ccc(C5CCCN5)cc4F)cn23)CC1 (stereo not drawn) [Compound 500, 2-(2-fluoro-4-(pyrrolidin-2-yl)phenyl)-N-(1-methylpiperidin-4-yl)benzo[d]imidazo[2,1-b]thiazole-7-carboxamide]
  Myc Efficacy (−LogEC50): +++ (+++ ≥6)

## O=C(NCCCN1CCC(F)CC1)c1cc2sc3nc(-c4ccc(C5CCCN5)cc4F)cn3c2cn1 (stereo not drawn) [Compound 501, 2-(2-fluoro-4-(pyrrolidin-2-yl)phenyl)-N-(3-(4-fluoropiperidin-1-yl)propyl)imidazo[2′,1′:2,3]thiazolo[4,5-c]pyridine-7-carboxamide]
  Myc Efficacy (−LogEC50): +++ (+++ ≥6)

## CN1CCC(NC(=O)c2ccc3c(c2)sc2nc(-c4ccc([C@H]5CCCN5)cc4F)cn23)CC1 [Compound 503R, (R)-2-(2-fluoro-4-(pyrrolidin-2-yl)phenyl)-N-(1-methylpiperidin-4-yl)benzo[d]imidazo[2,1-b]thiazole-7-carboxamide]
  Myc Efficacy (−LogEC50): +++ (+++ ≥6)

## CN1CCC(NC(=O)c2ccc3c(c2)sc2nc(-c4ccc([C@@H]5CCCN5)cc4F)cn23)CC1 [Compound 503S, (S)-2-(2-fluoro-4-(pyrrolidin-2-yl)phenyl)-N-(1-methylpiperidin-4-yl)benzo[d]imidazo[2,1-b]thiazole-7-carboxamide]
  Myc Efficacy (−LogEC50): +++ (+++ ≥6)

## CNC(=O)c1ccc2c(c1)sc1nc(-c3ccc(C4CCNC4)cc3F)cn12 (stereo not drawn) [Compound 504, 2-(2-fluoro-4-(pyrrolidin-3-yl)phenyl)-N-methylbenzo[d]imidazo[2,1-b]thiazole-7-carboxamide]
  Myc Efficacy (−LogEC50): +++ (+++ ≥6)

## CN1CCC(NC(=O)c2ccc3c(c2)sc2nc(-c4ccc(C5CCNC5)cc4F)cn23)CC1 (stereo not drawn) [Compound 505, 2-(2-fluoro-4-(pyrrolidin-3-yl)phenyl)-N-(1-methylpiperidin-4-yl)benzo[d]imidazo[2,1-b]thiazole-7-carboxamide]
  Myc Efficacy (−LogEC50): +++ (+++ ≥6)

## CN1CC(NC(=O)c2ccc3c(c2)sc2nc(-c4ccc(C5CCCN5)cc4F)cn23)C1 (stereo not drawn) [Compound 506, 2-(2-fluoro-4-(pyrrolidin-2-yl)phenyl)-N-(1-methylazetidin-3-yl)benzo[d]imidazo[2,1-b]thiazole-7-carboxamide]
  Myc Efficacy (−LogEC50): +++ (+++ ≥6)

## O=C1CNC(c2ccc(-c3cn4c(n3)sc3cc(C(=O)NCCCN5CCC(F)CC5)ccc34)c(F)c2)C1 (stereo not drawn) [Compound 507, 2-(2-fluoro-4-(4-oxopyrrolidin-2-yl)phenyl)-N-(3-(4-fluoropiperidin-1-yl)propyl)benzo[d]imidazo[2,1-b]thiazole-7-carboxamide]
  Myc Efficacy (−LogEC50): +++ (+++ ≥6)

## O=C(NCCCN1CCC(F)CC1)c1ccc2c(c1)sc1nc(-c3ccc(C4CCNCC4)cc3F)cn12 [Compound 508, 2-(2-fluoro-4-(piperidin-4-yl)phenyl)-N-(3-(4-fluoropiperidin-1-yl)propyl)benzo[d]imidazo[2,1-b]thiazole-7-carboxamide]
  Myc Efficacy (−LogEC50): +++ (+++ ≥6)

## O=C(NCCCN1CCC(F)CC1)c1cc2sc3nc(-c4ccc([C@H]5CCCN5)cc4F)cn3c2cn1 [Compound 509R, (R)-2-(2-fluoro-4-(pyrrolidin-2-yl)phenyl)-N-(3-(4-fluoropiperidin-1-yl)propyl)imidazo[2′,1′:2,3]thiazolo[4,5-c]pyridine-7-carboxamide]
  Myc Efficacy (−LogEC50): +++ (+++ ≥6)

## O=C(NCCCN1CCC(F)CC1)c1cc2sc3nc(-c4ccc([C@@H]5CCCN5)cc4F)cn3c2cn1 [Compound 509S, (S)-2-(2-fluoro-4-(pyrrolidin-2-yl)phenyl)-N-(3-(4-fluoropiperidin-1-yl)propyl)imidazo[2′,1′:2,3]thiazolo[4,5-c]pyridine-7-carboxamide]
  Myc Efficacy (−LogEC50): +++ (+++ ≥6)

## O=C(NC1CCOCC1)c1ccc2c(c1)sc1nc(-c3ccc(C4CCCN4)cc3F)cn12 (stereo not drawn) [Compound 510, 2-(2-fluoro-4-(pyrrolidin-2-yl)phenyl)-N-(tetrahydro-2H-pyran-4-yl)benzo[d]imidazo[2,1-b]thiazole-7-carboxamide]
  Myc Efficacy (−LogEC50): +++ (+++ ≥6)

## NC(=O)c1ccc2c(c1)sc1nc(-c3ccc(C4CCNC4)cc3F)cn12 (stereo not drawn) [Compound 511, 2-(2-fluoro-4-(pyrrolidin-3-yl)phenyl)benzo[d]imidazo[2,1-b]thiazole-7-carboxamide]
  Myc Efficacy (−LogEC50): +++ (+++ ≥6)

## O=C(NCCCN1CCC(F)CC1)c1ccc2c(c1)sc1nc(-c3ccc(C4(O)CCNCC4)cc3F)cn12 [Compound 512, 2-(2-fluoro-4-(4-hydroxypiperidin-4-yl)phenyl)-N-(3-(4-fluoropiperidin-1-yl)propyl)benzo[d]imidazo[2,1-b]thiazole-7-carboxamide]
  Myc Efficacy (−LogEC50): +++ (+++ ≥6)

## O=C(NCCCN1CCC(F)CC1)c1ccc2c(c1)sc1nc(-c3ccc(C4CCCNC4)cc3F)cn12 (stereo not drawn) [Compound 513, 2-(2-fluoro-4-(piperidin-3-yl)phenyl)-N-(3-(4-fluoropiperidin-1-yl)propyl)benzo[d]imidazo[2,1-b]thiazole-7-carboxamide]
  Myc Efficacy (−LogEC50): +++ (+++ ≥6)

## NC(=O)c1cc2sc3nc(-c4ccc(C5CCCN5)cc4F)cn3c2cn1 (stereo not drawn) [Compound 514, 2-(2-fluoro-4-(pyrrolidin-2-yl)phenyl)imidazo[2′,1′:2,3]thiazolo[4,5-c]pyridine-7-carboxamide]
  Myc Efficacy (−LogEC50): +++ (+++ ≥6)

## CNC(=O)c1cc2sc3nc(-c4ccc(C5CCCN5)cc4F)cn3c2cn1 (stereo not drawn) [Compound 515, 2-(2-fluoro-4-(pyrrolidin-2-yl)phenyl)-N-methylimidazo[2′,1′:2,3]thiazolo[4,5-c]pyridine-7-carboxamide]
  Myc Efficacy (−LogEC50): +++ (+++ ≥6)

## O=C(NCCCN1CCC(F)CC1)c1ccc2c(c1)sc1nc(-c3ccc(C4(O)CCNC4)cc3F)cn12 (stereo not drawn) [Compound 516, 2-(2-fluoro-4-(3-hydroxypyrrolidin-3-yl)phenyl)-N-(3-(4-fluoropiperidin-1-yl)propyl)benzo[d]imidazo[2,1-b]thiazole-7-carboxamide]
  Myc Efficacy (−LogEC50): +++ (+++ ≥6)

## CN1CCC(NC(=O)c2ccc3c(c2)sc2nc(-c4ccc(C5COCCN5)cc4F)cn23)CC1 (stereo not drawn) [Compound 517, 2-(2-fluoro-4-(morpholin-3-yl)phenyl)-N-(1-methylpiperidin-4-yl)benzo[d]imidazo[2,1-b]thiazole-7-carboxamide]
  Myc Efficacy (−LogEC50): +++ (+++ ≥6)

## CN1CCC(NC(=O)c2ccc3c(c2)sc2nc(-c4ccc(C5CNCCO5)cc4F)cn23)CC1 (stereo not drawn) [Compound 519, 2-(2-fluoro-4-(morpholin-2-yl)phenyl)-N-(1-methylpiperidin-4-yl)benzo[d]imidazo[2,1-b]thiazole-7-carboxamide]
  Myc Efficacy (−LogEC50): +++ (+++ ≥6)

## CN1CCC(NC(=O)c2ccc3c(c2)sc2nc(-c4ccc([C@@H]5C[C@@H](O)CN5)cc4F)cn23)CC1 [Compound 522R, 2-(2-fluoro-4-((2S,4R)-4-hydroxypyrrolidin-2-yl)phenyl)-N-(1-methylpiperidin-4-yl)benzo[d]imidazo[2,1-b]thiazole-7-carboxamide]
  Myc Efficacy (−LogEC50): +++ (+++ ≥6)

## CN1CCC(NC(=O)c2ccc3c(c2)sc2nc(-c4ccc([C@@H]5C[C@H](O)CN5)cc4F)cn23)CC1 [Compound 522S, 2-(2-fluoro-4-((2S,4S)-4-hydroxypyrrolidin-2-yl)phenyl)-N-(1-methylpiperidin-4-yl)benzo[d]imidazo[2,1-b]thiazole-7-carboxamide]
  Myc Efficacy (−LogEC50): +++ (+++ ≥6)

## O=C(NC1CCCOC1)c1ccc2c(c1)sc1nc(-c3ccc(C4CCCN4)cc3F)cn12 (stereo not drawn) [Compound 525, 2-(2-fluoro-4-(pyrrolidin-2-yl)phenyl)-N-(tetrahydro-2H-pyran-3-yl)benzo[d]imidazo[2,1-b]thiazole-7-carboxamide]
  Myc Efficacy (−LogEC50): +++ (+++ ≥6)

## O=C(NC1CCOCC1)c1ccc2c(c1)sc1nc(-c3ccc(C4CCNCC4)cc3F)cn12 [Compound 529, 2-(2-fluoro-4-(piperidin-4-yl)phenyl)-N-(tetrahydro-2H-pyran-4-yl)benzo[d]imidazo[2,1-b]thiazole-7-carboxamide]
  Myc Efficacy (−LogEC50): +++ (+++ ≥6)
